Measured values from BindingDB's records for doi:10.1002/cbic.201200316 (Moffitt Cancer Center, 2012).

The compounds below were run against Cyclin-dependent kinase 2 (Homo sapiens, UniProt P24941) (assay: Inhibition Assay).
Procedure: The inhibitory against activated CDK2-cyclin A2 complex was determined by using the ADP Quest fluorescence assay from (DiscoveRX, Fremont, CA)

First: Cc1ccc(N=Nc2c(O)ccc3nn[nH]c23)cc1
Second: O=c1[nH]c(O)ccc1N=Nc1ccc(S(=O)(=O)O)cc1 [Hit compound, 4]
The IC50 of the first is higher: over 150 µM for the first, 45 µM for the second. The second is the more potent here.

`O=C1c2ccccc2C(=O)C1c1ccccn1` and `COCc1cc(/N=N/c2cccc(S(N)(=O)=O)c2)c2ccccc2c1N` [Hit compound, 5] are within 1.5-fold of each other in IC50: 46 µM for the first, 53 µM for the second.

`Nc1ccc2c(c1Cl)C(=O)c1ccc(N)c(Cl)c1C2=O` [2,6-bis(azanyl)-1,5-bis(chloranyl)anthracene-9,10-dione] and `Cc1ccc(/N=N/c2ccc(N)cc2C)c(S(N)(=O)=O)c1` [Hit compound, 7] cannot be ordered by IC50: over 150 µM for the first, over 150 µM for the second.

`O=c1cc(-c2ccc(O)cc2)oc2c(O)c(O)c(O)c(O)c12` [2-(4-hydroxyphenyl)-5,6,7,8-tetrakis(oxidanyl)chromen-4-one] and `Oc1ccc(/N=C/c2c(O)ccc3ccccc23)cc1` [Hit compound, 3] cannot be ordered by IC50: over 150 µM for the first, over 150 µM for the second.

`Nc1cc([N+](=O)[O-])ccc1Nc1ccc(O)cc1` [Hit compound, 12] gave an IC50 of over 150 µM.
